Experiment [1] has as its target HDAC1 (Homo sapiens, UniProt Q13547). Kind of experiment: HDAC1 enzymatic inhibition assay. Type of experiment: biochemical. To be noted: HDAC1 IC50, singlet 10-dose IC50 mode, 3-fold serial dilution starting at 100 μM.
Experiment [2] concerns mutant HSPB1 DRG neurons. Kind of experiment: Mitochondrial axonal transport in mutant HSPB1 DRG neurons. Type of experiment: cell-based, mouse. To be noted: DRG neurons from transgenic mutant HSPB1 mice, 100 nM overnight.
Experiment [3] has as its target HDAC2 (Homo sapiens, UniProt Q92769). As to the kind of experiment: HDAC2 enzymatic inhibition assay.
Experiment [4] concerns the target HDAC5 (Homo sapiens, UniProt Q9UQL6). As to the kind of experiment: HDAC5 enzymatic inhibition assay.
The target of experiment [5] is T1, HDAC10 (Homo sapiens, UniProt Q969S8).
T1 sequence (Q969S8 1-669): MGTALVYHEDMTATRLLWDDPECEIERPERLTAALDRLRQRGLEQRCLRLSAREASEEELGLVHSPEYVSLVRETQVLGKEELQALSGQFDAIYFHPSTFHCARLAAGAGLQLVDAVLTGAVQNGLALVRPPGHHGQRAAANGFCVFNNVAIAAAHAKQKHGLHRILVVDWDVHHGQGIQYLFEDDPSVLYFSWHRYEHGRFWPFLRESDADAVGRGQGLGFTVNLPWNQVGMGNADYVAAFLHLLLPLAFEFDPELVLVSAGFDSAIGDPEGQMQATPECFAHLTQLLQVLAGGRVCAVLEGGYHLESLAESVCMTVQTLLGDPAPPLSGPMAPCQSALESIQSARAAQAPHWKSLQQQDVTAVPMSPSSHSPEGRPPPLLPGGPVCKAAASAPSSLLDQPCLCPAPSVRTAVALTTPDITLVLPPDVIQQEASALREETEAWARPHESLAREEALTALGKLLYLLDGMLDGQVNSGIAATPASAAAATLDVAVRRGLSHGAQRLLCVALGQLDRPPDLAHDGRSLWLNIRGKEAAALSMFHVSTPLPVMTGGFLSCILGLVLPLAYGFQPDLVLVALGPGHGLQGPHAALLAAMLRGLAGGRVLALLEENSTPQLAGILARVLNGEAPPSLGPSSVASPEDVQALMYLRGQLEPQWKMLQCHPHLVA
As to the kind of experiment: HDAC10 enzymatic inhibition assay.

Experiment [6] deals with acetylated histone 3 in N2a cells. As to the kind of experiment: Acetylated histone 3/histone 4 ratio in N2a cells by Western blot. To be noted: overnight, vehicle = 1.00. Type of experiment: cell-based, mouse. Background: A western blot detects proteins with antibodies after separation by electrophoresis.
Experiment [7] concerns the target T2, HDAC8 (Homo sapiens, UniProt Q9BY41).
T2 sequence (Q9BY41 1-377): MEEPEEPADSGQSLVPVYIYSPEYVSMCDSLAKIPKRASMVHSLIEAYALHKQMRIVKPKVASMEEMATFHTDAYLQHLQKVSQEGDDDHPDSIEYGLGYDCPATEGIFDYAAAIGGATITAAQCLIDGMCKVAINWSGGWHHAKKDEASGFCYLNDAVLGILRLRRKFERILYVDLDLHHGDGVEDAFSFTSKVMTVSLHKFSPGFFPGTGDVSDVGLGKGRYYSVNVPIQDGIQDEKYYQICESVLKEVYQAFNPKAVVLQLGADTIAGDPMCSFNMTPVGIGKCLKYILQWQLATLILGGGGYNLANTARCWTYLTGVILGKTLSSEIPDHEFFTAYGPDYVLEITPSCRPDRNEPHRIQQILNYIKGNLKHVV
Kind of experiment: HDAC8 enzymatic inhibition assay.

For experiment [8], the target named is HDAC4 (Homo sapiens, UniProt P56524). As to the kind of experiment: HDAC4 enzymatic inhibition assay.
Sequence of HDAC4 (P56524 whole entry): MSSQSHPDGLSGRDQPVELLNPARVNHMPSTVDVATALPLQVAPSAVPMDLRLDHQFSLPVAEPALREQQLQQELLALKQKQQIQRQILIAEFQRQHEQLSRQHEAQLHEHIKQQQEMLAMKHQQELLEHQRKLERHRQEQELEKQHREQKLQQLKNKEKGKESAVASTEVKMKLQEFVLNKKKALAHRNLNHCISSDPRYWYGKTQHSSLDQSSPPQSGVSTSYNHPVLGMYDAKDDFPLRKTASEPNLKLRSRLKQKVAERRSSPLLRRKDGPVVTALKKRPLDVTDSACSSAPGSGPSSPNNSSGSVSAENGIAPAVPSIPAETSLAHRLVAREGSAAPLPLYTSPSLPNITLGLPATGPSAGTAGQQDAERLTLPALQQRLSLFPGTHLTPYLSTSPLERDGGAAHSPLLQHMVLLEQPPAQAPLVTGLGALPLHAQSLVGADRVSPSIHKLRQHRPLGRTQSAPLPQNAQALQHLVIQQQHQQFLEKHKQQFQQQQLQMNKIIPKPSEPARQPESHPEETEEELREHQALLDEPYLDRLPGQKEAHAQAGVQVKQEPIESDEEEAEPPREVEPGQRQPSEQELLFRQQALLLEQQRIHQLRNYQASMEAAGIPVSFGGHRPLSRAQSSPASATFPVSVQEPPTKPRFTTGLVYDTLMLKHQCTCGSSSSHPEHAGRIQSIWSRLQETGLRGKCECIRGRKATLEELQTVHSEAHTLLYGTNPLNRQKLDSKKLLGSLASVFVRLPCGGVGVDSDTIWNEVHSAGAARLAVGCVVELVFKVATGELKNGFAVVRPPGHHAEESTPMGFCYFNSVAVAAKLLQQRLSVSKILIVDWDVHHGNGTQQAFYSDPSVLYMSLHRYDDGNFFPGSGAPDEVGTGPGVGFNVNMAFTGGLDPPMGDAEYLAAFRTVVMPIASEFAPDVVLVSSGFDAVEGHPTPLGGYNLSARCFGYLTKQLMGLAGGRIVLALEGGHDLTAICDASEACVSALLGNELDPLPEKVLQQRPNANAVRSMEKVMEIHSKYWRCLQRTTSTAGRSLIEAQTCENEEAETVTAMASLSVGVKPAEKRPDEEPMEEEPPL
Experiment [9] has as its target HDAC3 (Homo sapiens, UniProt O15379). Kind of experiment: HDAC3 enzymatic inhibition assay.
Experiment [10] concerns the target HDAC9 (Homo sapiens, UniProt Q9UKV0). Kind of experiment: HDAC9 enzymatic inhibition assay.
The target in experiment [11] is T3, HDAC7 (Homo sapiens, UniProt Q8WUI4).
T3 sequence (Q8WUI4 1-952): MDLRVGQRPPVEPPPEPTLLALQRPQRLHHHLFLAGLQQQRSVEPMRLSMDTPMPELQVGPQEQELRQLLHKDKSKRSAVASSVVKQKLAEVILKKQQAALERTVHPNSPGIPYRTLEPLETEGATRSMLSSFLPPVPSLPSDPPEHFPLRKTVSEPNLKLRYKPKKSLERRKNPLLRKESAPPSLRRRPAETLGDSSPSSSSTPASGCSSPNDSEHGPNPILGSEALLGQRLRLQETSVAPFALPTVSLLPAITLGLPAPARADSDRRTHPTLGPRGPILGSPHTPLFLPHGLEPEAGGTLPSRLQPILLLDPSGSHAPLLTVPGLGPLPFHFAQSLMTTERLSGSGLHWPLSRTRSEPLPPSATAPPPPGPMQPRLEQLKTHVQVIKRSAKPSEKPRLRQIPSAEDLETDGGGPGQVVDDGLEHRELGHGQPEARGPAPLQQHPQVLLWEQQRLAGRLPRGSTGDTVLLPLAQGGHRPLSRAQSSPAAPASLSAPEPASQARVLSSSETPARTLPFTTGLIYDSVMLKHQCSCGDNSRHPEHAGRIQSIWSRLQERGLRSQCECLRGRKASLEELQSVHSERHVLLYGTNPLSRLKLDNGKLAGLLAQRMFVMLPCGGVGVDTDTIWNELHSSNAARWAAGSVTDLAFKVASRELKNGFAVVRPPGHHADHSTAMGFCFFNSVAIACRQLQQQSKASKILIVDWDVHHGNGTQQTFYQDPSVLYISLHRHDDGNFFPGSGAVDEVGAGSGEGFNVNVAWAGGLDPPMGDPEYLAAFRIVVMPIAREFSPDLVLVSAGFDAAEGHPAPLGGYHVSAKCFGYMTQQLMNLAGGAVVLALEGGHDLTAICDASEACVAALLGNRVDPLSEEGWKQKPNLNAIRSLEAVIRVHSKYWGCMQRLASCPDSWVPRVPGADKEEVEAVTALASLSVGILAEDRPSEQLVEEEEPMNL
As to the kind of experiment: HDAC7 enzymatic inhibition assay.

This note sets out measurements from paper PMC4775085 (ACS chemical neuroscience, 2015).

Sequence of HDAC2 (Q92769 whole entry): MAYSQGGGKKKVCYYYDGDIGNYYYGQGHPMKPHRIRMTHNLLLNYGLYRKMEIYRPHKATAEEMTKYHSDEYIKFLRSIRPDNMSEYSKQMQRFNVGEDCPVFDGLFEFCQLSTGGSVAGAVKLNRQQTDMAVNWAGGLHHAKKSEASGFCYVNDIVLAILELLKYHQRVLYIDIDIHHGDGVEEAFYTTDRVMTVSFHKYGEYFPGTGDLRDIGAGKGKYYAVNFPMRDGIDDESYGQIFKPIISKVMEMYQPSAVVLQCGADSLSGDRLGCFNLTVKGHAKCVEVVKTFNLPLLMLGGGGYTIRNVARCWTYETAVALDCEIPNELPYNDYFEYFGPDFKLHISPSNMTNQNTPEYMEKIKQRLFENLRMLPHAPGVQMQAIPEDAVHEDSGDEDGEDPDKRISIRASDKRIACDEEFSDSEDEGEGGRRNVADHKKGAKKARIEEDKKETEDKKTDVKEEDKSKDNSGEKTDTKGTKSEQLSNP
Sequence of HDAC3 (O15379 whole entry): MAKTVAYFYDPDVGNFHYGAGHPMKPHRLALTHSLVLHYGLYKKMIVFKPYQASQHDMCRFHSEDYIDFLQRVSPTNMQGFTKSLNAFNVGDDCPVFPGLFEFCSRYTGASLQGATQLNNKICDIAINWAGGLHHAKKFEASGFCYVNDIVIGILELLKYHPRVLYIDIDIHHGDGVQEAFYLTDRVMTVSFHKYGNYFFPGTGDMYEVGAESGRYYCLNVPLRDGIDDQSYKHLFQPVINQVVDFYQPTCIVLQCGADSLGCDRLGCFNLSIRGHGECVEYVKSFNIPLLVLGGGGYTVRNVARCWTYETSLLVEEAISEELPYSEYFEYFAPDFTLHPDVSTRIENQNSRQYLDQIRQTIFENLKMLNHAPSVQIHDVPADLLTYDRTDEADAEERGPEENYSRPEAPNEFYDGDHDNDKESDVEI
Sequence of HDAC3 (Q9Y618 395-489 partner limits assumed): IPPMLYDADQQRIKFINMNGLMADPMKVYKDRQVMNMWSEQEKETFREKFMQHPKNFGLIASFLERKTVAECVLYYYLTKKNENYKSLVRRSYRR
Sequence of HDAC9 (Q9UKV0 whole entry): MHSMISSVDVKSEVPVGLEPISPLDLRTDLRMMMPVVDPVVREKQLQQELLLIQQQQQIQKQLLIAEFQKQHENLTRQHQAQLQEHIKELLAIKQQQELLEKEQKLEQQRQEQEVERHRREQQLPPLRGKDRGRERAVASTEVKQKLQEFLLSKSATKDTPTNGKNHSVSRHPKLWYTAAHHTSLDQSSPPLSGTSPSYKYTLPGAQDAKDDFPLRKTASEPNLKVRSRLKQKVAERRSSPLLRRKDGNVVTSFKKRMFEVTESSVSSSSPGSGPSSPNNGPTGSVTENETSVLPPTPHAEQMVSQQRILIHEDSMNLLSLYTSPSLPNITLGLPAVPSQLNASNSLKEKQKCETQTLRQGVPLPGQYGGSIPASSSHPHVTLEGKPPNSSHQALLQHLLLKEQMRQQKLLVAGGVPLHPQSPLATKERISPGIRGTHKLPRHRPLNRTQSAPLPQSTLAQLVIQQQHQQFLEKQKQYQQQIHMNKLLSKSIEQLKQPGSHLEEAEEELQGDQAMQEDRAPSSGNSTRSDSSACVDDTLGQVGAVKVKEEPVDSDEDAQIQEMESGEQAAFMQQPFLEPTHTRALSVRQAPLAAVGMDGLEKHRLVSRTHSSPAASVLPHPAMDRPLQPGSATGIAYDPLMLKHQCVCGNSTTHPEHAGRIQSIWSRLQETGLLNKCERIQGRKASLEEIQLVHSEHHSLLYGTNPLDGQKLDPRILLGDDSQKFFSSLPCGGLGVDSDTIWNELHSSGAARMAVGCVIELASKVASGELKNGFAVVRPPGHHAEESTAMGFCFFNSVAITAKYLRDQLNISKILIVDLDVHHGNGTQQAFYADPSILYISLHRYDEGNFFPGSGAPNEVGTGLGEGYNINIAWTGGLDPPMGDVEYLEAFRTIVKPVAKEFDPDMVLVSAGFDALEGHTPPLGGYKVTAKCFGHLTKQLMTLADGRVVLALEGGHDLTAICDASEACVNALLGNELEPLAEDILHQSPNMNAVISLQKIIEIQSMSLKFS
Sequence of HDAC5 (Q9UQL6 whole entry): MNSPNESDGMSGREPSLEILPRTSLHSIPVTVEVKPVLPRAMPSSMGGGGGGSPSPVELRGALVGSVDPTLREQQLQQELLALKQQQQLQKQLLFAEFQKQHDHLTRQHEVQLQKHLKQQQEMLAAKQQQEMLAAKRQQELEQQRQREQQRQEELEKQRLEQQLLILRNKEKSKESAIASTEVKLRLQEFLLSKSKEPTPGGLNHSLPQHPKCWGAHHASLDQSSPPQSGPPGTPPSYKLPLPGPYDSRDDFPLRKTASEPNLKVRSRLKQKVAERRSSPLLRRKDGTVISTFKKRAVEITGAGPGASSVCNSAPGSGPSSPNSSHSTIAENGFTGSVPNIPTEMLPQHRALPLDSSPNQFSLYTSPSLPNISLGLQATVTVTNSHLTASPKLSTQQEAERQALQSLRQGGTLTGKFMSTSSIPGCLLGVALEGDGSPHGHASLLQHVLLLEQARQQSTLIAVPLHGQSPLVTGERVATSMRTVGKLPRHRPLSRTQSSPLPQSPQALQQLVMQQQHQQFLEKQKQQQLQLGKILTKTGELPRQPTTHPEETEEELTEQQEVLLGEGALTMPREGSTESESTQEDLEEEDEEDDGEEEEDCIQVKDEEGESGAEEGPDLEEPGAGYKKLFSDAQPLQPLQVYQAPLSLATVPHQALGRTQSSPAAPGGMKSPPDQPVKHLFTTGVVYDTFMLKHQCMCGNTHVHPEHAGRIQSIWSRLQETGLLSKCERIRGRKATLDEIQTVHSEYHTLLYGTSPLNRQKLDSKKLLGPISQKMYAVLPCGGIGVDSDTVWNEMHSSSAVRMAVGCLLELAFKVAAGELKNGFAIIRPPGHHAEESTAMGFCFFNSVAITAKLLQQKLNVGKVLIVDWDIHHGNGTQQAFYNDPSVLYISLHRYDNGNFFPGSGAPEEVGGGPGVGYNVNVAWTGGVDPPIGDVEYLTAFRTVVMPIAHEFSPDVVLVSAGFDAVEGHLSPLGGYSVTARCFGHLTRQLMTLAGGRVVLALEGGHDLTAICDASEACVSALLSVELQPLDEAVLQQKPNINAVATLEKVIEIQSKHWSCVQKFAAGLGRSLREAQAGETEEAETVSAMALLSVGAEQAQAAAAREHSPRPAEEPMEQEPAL
Sequence of HDAC1 (Q13547 whole entry): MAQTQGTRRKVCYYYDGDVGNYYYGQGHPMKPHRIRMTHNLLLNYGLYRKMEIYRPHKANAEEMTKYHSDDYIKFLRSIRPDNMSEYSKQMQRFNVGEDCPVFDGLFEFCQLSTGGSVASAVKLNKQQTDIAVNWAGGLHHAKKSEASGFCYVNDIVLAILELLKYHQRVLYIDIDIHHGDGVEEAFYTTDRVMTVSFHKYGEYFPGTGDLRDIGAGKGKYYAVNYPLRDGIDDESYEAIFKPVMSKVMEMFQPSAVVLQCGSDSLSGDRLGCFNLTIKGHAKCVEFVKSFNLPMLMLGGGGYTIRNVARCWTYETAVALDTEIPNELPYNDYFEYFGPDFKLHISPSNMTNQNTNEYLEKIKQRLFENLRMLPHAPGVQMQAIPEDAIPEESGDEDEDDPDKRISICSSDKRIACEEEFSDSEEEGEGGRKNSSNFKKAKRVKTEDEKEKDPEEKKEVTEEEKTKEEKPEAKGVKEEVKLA

In the case of `Cc1nc2ccc(F)cc2n1Cc1ccc(C(=O)NO)cc1` [30a, 4-[(6-Fluoro-2-methyl-1-benzimidazolyl)methyl]-N-hydroxybenzamide], the concentration for half-maximal inhibition (IC50) (usually the concentration at which inhibition is half-maximal) in experiment [1] is 4360 nM; in [3], 7430 nM; in experiment [4] it was 397 nM; in [5], 11800 nM; in [7], 368 nM; in experiment [8] it was 1460 nM. The IC50 was found to be 10000 nM in [9], 463 nM in [10] and 211 nM in experiment [11]. Further, the “mitochondrial axonal transport (number of moving mitochondria per 100 μm of neurite)” value in [2] is recorded as “able to restore the movement of mitochondria”. In experiment [6], the “ratio acetylated H3/H4 (1 μM) mean” value is given as “did not alter the acetylation of histone 3”.
